Data: patent publication US8404284B2, “Medicinal and herbal composition and uses thereof” (priority 2010, dated 2013)

Columns and labels:
[1] = Treatment of mild myocarditis / tachycardia in subjects; format: in vivo, human; conditions: for Response of mild myocarditis: four subjects
From the text: Rogers et. al. described an IRIS case which manifested in the form of fulminant myocarditis. […] All four subjects of the instant experiment had no previous heart condition and were started with the HC alone, but were given LDN after the first mortality had occurred.
They were turned down several times to be a participant in the herbal program because they refused to take their spouse for counseling. […] They were diagnosed with borderline cardiomegaly around one year after initially testing HIV positive, and developed tachycardia, but had no subjective complaint and never developed fever. We maintained them on Lanoxin 250 μg, which controlled their heart rate below 100 beats/minute, and also started them on LDN.

[2] = Clinical observation of adverse effects; format: in vivo, human; conditions: 960 mg tablets daily
Description: Patients were tested weekly for progress and toxicities. We then determined a dose which can be tolerated by most of the patients, and recruited more subjects. In a preferred embodiment, two HC's (one each, B.I.D), approximately equal to 500 mg of the active ingredients of U.S. Pat. No. 7,556,830 per day, are administered. However, adjustments must be made according to the body weight of the subject, and lesser or higher dosages of as low as 100 mg and as high as 1 g, can be deployed. As a majority of the patients' health improved, we progressively scheduled their appointments further apart, to once every two weeks, and then, on a monthly basis.

[3] = cited from earlier work
HIV = conditions: LDN alone on HIV+ subjects; stated by Bihari; cited from earlier work

## NS(=O)(=O)c1cc(C(=O)O)c(NCc2ccco2)cc1Cl [furosemide]
[1]
  Response of mild myocarditis: responded promptly

## cotrimoxazole
[2]
  Bone marrow suppression: several patients developed bone marrow suppression

## O=C1CC[C@@]2(O)[C@H]3Cc4ccc(O)c5c4[C@@]2(CCN3CC2CC2)[C@H]1O5 [Naltrexone, 17-(cyclopropylmethyl)-4,5α-epoxy-3,14-dihydroxymorphinan-6-one]
[3]
  Bioavailability: 5-40%
HIV
  Effect on CD4 count: does not increase CD4 count, but only maintains its level or delays its decrease

## C[C@H]1O[C@@H](O[C@H]2[C@@H](O)C[C@H](O[C@H]3[C@@H](O)C[C@H](O[C@H]4CC[C@@]5(C)[C@H](CC[C@@H]6[C@@H]5C[C@@H](O)[C@]5(C)[C@@H](C7=CC(=O)OC7)CC[C@]65O)C4)O[C@@H]3C)O[C@@H]2C)C[C@H](O)[C@@H]1O [digoxin]
[1]
  Response of mild myocarditis: responded promptly
[1]; patient, tachycardia, 250 μg
  Heart rate: below 100 beats/minute
